Laboratory results published in ChEMBL document CHEMBL1137505, “Direct diazo-transfer reaction on beta-lactam: synthesis and preliminary biological activities of 6-triazolylpenicillanic acids” (2007).
≈ marks a conversion by molar mass, not a printed value.

Key:
Assay type in all cases: functional
[1] = tested on: Staphylococcus aureus; test: Antibacterial activity against Staphylococcus aureus ATCC 29213
[2] = tested on: Escherichia coli; test: Antibacterial activity against Escherichia coli ATCC 25922
[3] = tested on: Streptococcus pneumoniae; test: Antibacterial activity against Streptococcus pneumoniae ATCC 49619
[4] = tested on: Bacillus anthracis; test: Antibacterial activity against Bacillus anthracis AMES

SMILES | MIC [1] [µg/mL] | MIC [2] [µg/mL] | MIC [3] [µg/mL] | MIC [4] [µg/mL]
CC1(C)S[C@@H]2[C@H](n3cc(-c4ccncc4)nn3)C(=O)N2[C@H]1C(=O)O | > 8 | > 8 | > 8 | > 8
CC1(C)S[C@@H]2[C@H](n3cc(-c4cccs4)nn3)C(=O)N2[C@H]1C(=O)O | > 8 | > 8 | 8 (≈ 22.8 µM) | > 8
COc1cccc(OC)c1-c1cn([C@@H]2C(=O)N3[C@@H]2SC(C)(C)[C@@H]3C(=O)O)nn1 | > 8 | > 8 | > 8 | > 8
CC1(C)S[C@@H]2[C@H](n3cc(Cc4ccccc4)nn3)C(=O)N2[C@H]1C(=O)O | > 8 | > 8 | 4 (≈ 11.2 µM) | > 8
CC1(C)S[C@@H]2[C@H](n3cc(C(O)c4ccccc4)nn3)C(=O)N2[C@H]1C(=O)O (stereo partly drawn) | > 8 | > 8 | > 8 | > 8
CC1(C)S[C@@H]2[C@H](n3cc(-c4ccccc4-c4ccccc4)nn3)C(=O)N2[C@H]1C(=O)O | > 8 | > 8 | > 8 | > 8
CC1(C)S[C@@H]2[C@H](n3cc(-c4cccc(-c5ccccc5)c4)nn3)C(=O)N2[C@H]1C(=O)O | > 8 | > 8 | > 8 | > 8
CC1(C)S[C@@H]2[C@H](n3cc(-c4ccc(-c5ccccc5)cc4)nn3)C(=O)N2[C@H]1C(=O)O | > 8 | > 8 | ≥ 8 | > 8
CCN1CCN(C(=O)N[C@@H](C(=O)N[C@@H]2C(=O)N3[C@@H]2SC(C)(C)[C@@H]3C(=O)O)c2ccccc2)C(=O)C1=O [PIPERACILLIN] | 2 (≈ 3.86 µM) | 4 (≈ 7.73 µM) | – | 1 (≈ 1.93 µM)
CC1(C)S[C@@H]2[C@H](n3cc(C(O)c4ccc(-c5ccncc5)cc4)nn3)C(=O)N2[C@H]1C(=O)[O-].[Na+] (stereo partly drawn) | > 8 | > 8 | ≥ 8 | ≥ 8
CC1(C)S[C@@H]2[C@H](NC(=O)Cc3ccccc3)C(=O)N2[C@H]1C(=O)O [PENICILLIN G] | 1 (≈ 2.99 µM) | > 2 | – | ≤ 0.125
CC1(C)S[C@@H]2[C@H](n3cc(-c4ccc(-c5ccncc5)cc4)nn3)C(=O)N2[C@H]1C(=O)O | > 8 | > 8 | > 8 | > 8
CC1(C)S[C@@H]2[C@H](n3cc(-c4ccccn4)nn3)C(=O)N2[C@H]1C(=O)O | > 8 | > 8 | > 8 | > 8
CC1(C)S[C@@H]2[C@H](n3cc(-c4cccnc4)nn3)C(=O)N2[C@H]1C(=O)O | > 8 | > 8 | > 8 | > 8
CC1(C)S[C@@H]2[C@H](n3cc(-c4ccccc4)nn3)C(=O)N2[C@H]1C(=O)O | > 8 | > 8 | 4 (≈ 11.6 µM) | > 8
